System: Genes belonging to other category
Assay: DNA chip mRNA expression in yeast, genes belonging to other category (Table 9)
Format: cell-based, Saccharomyces cerevisiae S288C
Procedure: Yeast (Saccharomyces cerevisiae S288C (α SUC2mal mel gap2 CUP1)) were incubated at 25° C. on YPD medium (yeast extract 1%, polypepton 2%, glucose 2%). One of toxic chemical substances was added to the cells at logarithmic growth phase, and the cells were further incubated for two hours. Cells were cultured without any chemical substance in the same condition, and were used as control. Concentrations of the chemical substances were defined to inhibit the growth of the yeast but not lead to death.
After completion of the incubation, the culture was centrifuged to collect the cells. To the cells, sodium acetate buffer (50 mM sodium acetate, 10 mM EDTA, 1% SDS) was added, and the mixture was shaken at 65° C. for five minutes, followed by returning to room temperature, and obtaining the supernatant, of which the procedures were repeated two times. To the supernatant, ½ amount of a solution of phenol/chloroform was added, and the mixture was centrifuged to give a supernatant, which was added with an equal amount of chloroform, and the mixture was centrifuged to give a supernatant. To the supernatant, an equal amount of isopropanol containing 0.3 M sodium acetate was added, and the mixture was allowed to stand at room temperature for 30 minutes, after which the mixture was centrifuged to give a sediment of the whole RNAs. Seventy % ethanol was added to the sediment, and the mixture was again centrifuged to give a sediment, which was then dried and dissolved in water. mRNA was isolated from the whole RNAs as followings. In view of the fact that a poly A chain is attached to the 3′ terminus of mRNA, a polynucleotide having a poly T structure which was immobilized on the surface of latex beads was used to trap the mRNA, and then the mRNA was washed and eluted with spine column (Oligotex-dT30<Super>mRNA Purification Kit, Takara). Reverse transcription of the mRNA was conducted with a reverse transcriptase (Super Script II Reverse Transcriptase; catalogue No. 18064-014, GibcoBRL) using fluorescence-labeled nucleotides to give cDNAs that were introduced with Cy3-dUTP or Cy5-dUTP during the reverse transcription.
The labeled cDNAs were dissolved in TE buffer (10mM Tris-HCl/1 mM EDTA, pH8.0), and the solution was dropped on the DNA chip containing the whole genes of yeast (DNA Chip Research Inc. Japan) so that the cDNAs were hybridized on the DNA chip at 65° C. for over 12 hours. The fluoresces intensity of the DNA chip was read with a scanner, and the ratio relative to the fluorescence intensity resulting from the absence of chemical substance was estimated as the following, which is shown in Tables 1 to 9: […]

## CN(C)C(=S)SSC(=S)N(C)C [(10), Tetramethylthiuram disulfide]
Yeast gene YMR314W
  The level of expressed mRNA in the presence of chemical substance/The level of expressed mRNA in the absence of chemical substance: 2.7
Yeast gene YNL006W
  The level of expressed mRNA in the presence of chemical substance/The level of expressed mRNA in the absence of chemical substance: 4.0
Yeast gene YNL007C
  The level of expressed mRNA in the presence of chemical substance/The level of expressed mRNA in the absence of chemical substance: 1.7
Yeast gene YNL083W
  The level of expressed mRNA in the presence of chemical substance/The level of expressed mRNA in the absence of chemical substance: 1.6
Yeast gene YNL093W
  The level of expressed mRNA in the presence of chemical substance/The level of expressed mRNA in the absence of chemical substance: 2.0
Yeast gene YNL135C
  The level of expressed mRNA in the presence of chemical substance/The level of expressed mRNA in the absence of chemical substance: 0.5
Yeast gene YNL139C
  The level of expressed mRNA in the presence of chemical substance/The level of expressed mRNA in the absence of chemical substance: 0.7
Yeast gene YNL333W
  The level of expressed mRNA in the presence of chemical substance/The level of expressed mRNA in the absence of chemical substance: 2.1
Yeast gene YNR010W
  The level of expressed mRNA in the presence of chemical substance/The level of expressed mRNA in the absence of chemical substance: 0.9
Yeast gene YNR069C
  The level of expressed mRNA in the presence of chemical substance/The level of expressed mRNA in the absence of chemical substance: 5.8
Yeast gene YOL013C
  The level of expressed mRNA in the presence of chemical substance/The level of expressed mRNA in the absence of chemical substance: 1.0
Yeast gene YOL038W
  The level of expressed mRNA in the presence of chemical substance/The level of expressed mRNA in the absence of chemical substance: 2.7
Yeast gene YOL164W
  The level of expressed mRNA in the presence of chemical substance/The level of expressed mRNA in the absence of chemical substance: 3.6
Yeast gene YOR028C
  The level of expressed mRNA in the presence of chemical substance/The level of expressed mRNA in the absence of chemical substance: 2.0
Yeast gene YOR036W
  The level of expressed mRNA in the presence of chemical substance/The level of expressed mRNA in the absence of chemical substance: 1.9
Yeast gene YOR058C
  The level of expressed mRNA in the presence of chemical substance/The level of expressed mRNA in the absence of chemical substance: 4.5
Yeast gene YOR117W
  The level of expressed mRNA in the presence of chemical substance/The level of expressed mRNA in the absence of chemical substance: 1.8
Yeast gene YOR124C
  The level of expressed mRNA in the presence of chemical substance/The level of expressed mRNA in the absence of chemical substance: 1.9
Yeast gene YOR132W
  The level of expressed mRNA in the presence of chemical substance/The level of expressed mRNA in the absence of chemical substance: 1.6
Yeast gene YOR149C
  The level of expressed mRNA in the presence of chemical substance/The level of expressed mRNA in the absence of chemical substance: 1.0
Yeast gene YOR157C
  The level of expressed mRNA in the presence of chemical substance/The level of expressed mRNA in the absence of chemical substance: 2.6
Yeast gene YOR181W
  The level of expressed mRNA in the presence of chemical substance/The level of expressed mRNA in the absence of chemical substance: 0.5
Yeast gene YOR185C
  The level of expressed mRNA in the presence of chemical substance/The level of expressed mRNA in the absence of chemical substance: 2.9
Yeast gene YOR198C
  The level of expressed mRNA in the presence of chemical substance/The level of expressed mRNA in the absence of chemical substance: 1.4
Yeast gene YOR259C
  The level of expressed mRNA in the presence of chemical substance/The level of expressed mRNA in the absence of chemical substance: 1.5
Yeast gene YOR261C
  The level of expressed mRNA in the presence of chemical substance/The level of expressed mRNA in the absence of chemical substance: 2.5
Yeast gene YOR285W
  The level of expressed mRNA in the presence of chemical substance/The level of expressed mRNA in the absence of chemical substance: 2.9
Yeast gene YOR288C
  The level of expressed mRNA in the presence of chemical substance/The level of expressed mRNA in the absence of chemical substance: 1.0
Yeast gene YOR298W
  The level of expressed mRNA in the presence of chemical substance/The level of expressed mRNA in the absence of chemical substance: 1.0
Yeast gene YOR355W
  The level of expressed mRNA in the presence of chemical substance/The level of expressed mRNA in the absence of chemical substance: 0.8
Yeast gene YOR383C
  The level of expressed mRNA in the presence of chemical substance/The level of expressed mRNA in the absence of chemical substance: 4.5
Yeast gene YPL001W
  The level of expressed mRNA in the presence of chemical substance/The level of expressed mRNA in the absence of chemical substance: 1.0
Yeast gene YPL020C
  The level of expressed mRNA in the presence of chemical substance/The level of expressed mRNA in the absence of chemical substance: 1.6
Yeast gene YPL089C
  The level of expressed mRNA in the presence of chemical substance/The level of expressed mRNA in the absence of chemical substance: 2.5
Yeast gene YPL109C
  The level of expressed mRNA in the presence of chemical substance/The level of expressed mRNA in the absence of chemical substance: 1.5
Yeast gene YPL124W
  The level of expressed mRNA in the presence of chemical substance/The level of expressed mRNA in the absence of chemical substance: 1.0
Yeast gene YPL149W
  The level of expressed mRNA in the presence of chemical substance/The level of expressed mRNA in the absence of chemical substance: 3.7
Yeast gene YPL154C
  The level of expressed mRNA in the presence of chemical substance/The level of expressed mRNA in the absence of chemical substance: 1.7
Yeast gene YPL177C
  The level of expressed mRNA in the presence of chemical substance/The level of expressed mRNA in the absence of chemical substance: 1.0
Yeast gene YPL220W
  The level of expressed mRNA in the presence of chemical substance/The level of expressed mRNA in the absence of chemical substance: 0.5
Yeast gene YPL230W
  The level of expressed mRNA in the presence of chemical substance/The level of expressed mRNA in the absence of chemical substance: 2.7
Yeast gene YPR081C
  The level of expressed mRNA in the presence of chemical substance/The level of expressed mRNA in the absence of chemical substance: 2.6
Yeast gene YPR103W
  The level of expressed mRNA in the presence of chemical substance/The level of expressed mRNA in the absence of chemical substance: 2.0
Yeast gene YPR108W
  The level of expressed mRNA in the presence of chemical substance/The level of expressed mRNA in the absence of chemical substance: 2.8
Yeast gene YPR149W
  The level of expressed mRNA in the presence of chemical substance/The level of expressed mRNA in the absence of chemical substance: 1.8
Yeast gene YPR168W
  The level of expressed mRNA in the presence of chemical substance/The level of expressed mRNA in the absence of chemical substance: 2.7

Reference: patent US8192962B2, “Processes for detecting toxic substances” (Daikin Industries, Ltd., priority 2001, dated 2012)
